Experimental findings from patent US20240140991A1, “ANTIBIOTIC NATURAL PRODUCT ANALOGUES” (THE QUEEN'S UNIVERSITY OF BELFAST, priority 2021, published 2024) are described below.

Converted amounts (≈) assume the structure as drawn. Positions of bridges follow the written chain, without caps; N, C: chain ends. Non-standard residues stand in square brackets, D forms with d. Residues, ends and D or L forms follow the SMILES beside them. ξ: configuration not given here. *: point of attachment. Octanoyl(7-Me) = CC(C)CCCCCC(=O)*; Palmitoyl = CCCCCCCCCCCCCCCC(=O)*; Hexanoyl(4ξ-Me) = CCC(C)CCC(=O)*; X2 = CC(=O)[C@H](CC(N)=O)C(=O)*; Lauroyl = CCCCCCCCCCCC(=O)*; Decanoyl = CCCCCCCCCC(=O)*; dOrn = NCCC[C@@H](N)C(=O)O; Octanoyl = CCCCCCCC(=O)*; Orn = NCCC[C@H](N)C(=O)O; Dap = NC[C@H](N)C(=O)O; Hexanoyl = CCCCCC(=O)*; Alloc = C=CCOC(=O)*; OAll = C=CCO*

For assay [1], the system named is E. coli. The class given is cell-based. The method, then: Minimum inhibitory concentration (MIC) was determined by broth microdilution according to CLSI guidelines. Blood agar plates were inoculated with glycerol stocks of Escherichia coli ATCC 25922, E. coli ATCC 25922 MCR-1, E. coli MCR-1 (clinical isolate from Utrecht Medical Center, NL), E. coli EQAS MCR-2 (clinical isolate from Wageningen University and Research, NL), Kiebsielia pneumoniae ATCC 11228, K. pneumoniae ATCC 13883, K. pneumonia 2048 (clinical isolate from Vrije Universiteit Amsterdam Medical Center, NL), K. pneumonia JS-123 (clinical isolate from Utrecht Medical Center, NL), Acinetobacter baumannii ATCC 17961, A. baumannil ATCC 17978, A. baumannii 2018-006 (clinical isolate from Rijksinstituut voor Volksgezondheid en Milieu, NL), A. baumannii MDR (clinical isolate from Vrije Universiteit Amsterdam Medical Center, NL), Pseudomonas aeruginosa ATCC 27853, P. aeruginosa PAO1, P. aeruginosa NRZ-03961 (Reference strain from Das Nationale Referenzzentrum für gramnegative Krankenhauserreger, DE), P. aeruginosa M-120 (clinical isolate from Leiden University Medical Center, NL) and Staphylococcus aureus USA300 (clinical isolate from Texas Children's Hospitalm, USA). E. coli 25922 MCR1 was grown on LB agar supplemented with kanamycin. The inoculated agar plates were then incubated for 16 hours at 37° C. Individually grown colonies were subsequently used to inoculate 3 mL aliquots of TSB that were then incubated at 37° C. with shaking at 220 rpm. In parallel, the compounds to be assessed were serially diluted with Mueller-Hinton broth (MHB) in polypropylene 96-well plates (50 μL in each well). Once the OD600 of the bacterial suspensions reached 0.5, the bacteria were diluted with MHB (final concentration 2×10^5 CFU mL^−1) and added to the microplates containing the test compounds (50 μL to each well, final volume: 100 μL). The well-plates were sealed with an adhesive membrane and after 16 hours of incubation at 37° C. with shaking at 220 rpm the wells were visually inspected for bacterial growth. MIC values were defined as the lowest concentration of the compound that prevented visible growth of bacteria.
MIC values were determined for the lipid analogues of brevicidine.
MIC values were determined for the position 9 analogues of linear brevicidine.

Assay [2] has as its system Escherichia coli ATCC 25922. The class given is cell-based. As to conditions: for Minimum inhibitory concentration (MIC): ATCC 25922. In a few lines: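 Broth microdilution in MHB per CLSI; inoculum 2×10^5 CFU mL^−1 from log-phase TSB cultures at OD600 0.5. Plates incubated 16 hours at 37° C with shaking at 220 rpm. MIC is the lowest concentration preventing visible growth.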

In the case of `CC[C@H](C)[C@@H]1NC(=O)[C@@H](NC(=O)[C@H](Cc2c[nH]c3ccccc23)NC(=O)[C@@H](CCCN)NC(=O)CNC(=O)[C@H](CCCN)NC(=O)[C@@H](CCCN)NC(=O)[C@@H](Cc2c[nH]c3ccccc23)NC(=O)[C@@H](Cc2ccc(O)cc2)NC(=O)[C@@H](CC(N)=O)C(C)=O)[C@@H](C)OC(=O)[C@H](CO)NC(=O)CNC1=O` [Brev-C2] (X2-[dY][dW][dOrn][Orn]G[dOrn]WTIGS; ester 8-C), the “E. coli MIC” value in assay [1] was found to be 50 µg/mL.

For `CCCCCC(=O)N[C@H](CC(N)=O)C(=O)N[C@H](Cc1ccc(O)cc1)C(=O)N[C@H](Cc1c[nH]c2ccccc12)C(=O)N[C@H](CCCN)C(=O)N[C@@H](CCCN)C(=O)NCC(=O)N[C@H](CCCN)C(=O)N[C@@H](Cc1c[nH]c2ccccc12)C(=O)N[C@@H]1C(=O)N[C@@H]([C@@H](C)CC)C(=O)NCC(=O)N[C@@H](CO)C(=O)O[C@@H]1C` [Brev-C6] (Hexanoyl-[dN][dY][dW][dOrn][Orn]G[dOrn]WTIGS; ester 9-C), the “E. coli MIC” value in assay [1] was found to be 25 µg/mL.

For the molecule `CCCCCCCC(=O)N[C@H](CC(N)=O)C(=O)N[C@H](Cc1ccc(O)cc1)C(=O)N[C@H](Cc1c[nH]c2ccccc12)C(=O)N[C@H](CCCN)C(=O)N[C@@H](CCCN)C(=O)NCC(=O)N[C@H](CCCN)C(=O)N[C@@H](Cc1c[nH]c2ccccc12)C(=O)N[C@@H]1C(=O)N[C@@H]([C@@H](C)CC)C(=O)NCC(=O)N[C@@H](CO)C(=O)O[C@@H]1C` [Brev-C8] (Octanoyl-[dN][dY][dW][dOrn][Orn]G[dOrn]WTIGS; ester 9-C), the “E. coli MIC” value in assay [1] was 25 µg/mL. For the molecule `CCCCCCCCCC(=O)N[C@H](CC(N)=O)C(=O)N[C@H](Cc1ccc(O)cc1)C(=O)N[C@H](Cc1c[nH]c2ccccc12)C(=O)N[C@H](CCCN)C(=O)N[C@@H](CCCN)C(=O)NCC(=O)N[C@H](CCCN)C(=O)N[C@@H](Cc1c[nH]c2ccccc12)C(=O)N[C@@H]1C(=O)N[C@@H]([C@@H](C)CC)C(=O)NCC(=O)N[C@@H](CO)C(=O)O[C@@H]1C` [Brev-C10] (Decanoyl-[dN][dY][dW][dOrn][Orn]G[dOrn]WTIGS; ester 9-C), the “E. coli MIC” value in assay [1] is 1.56 µg/mL. As to `CCCCCCCCCCCC(=O)N[C@H](CC(N)=O)C(=O)N[C@H](Cc1ccc(O)cc1)C(=O)N[C@H](Cc1c[nH]c2ccccc12)C(=O)N[C@H](CCCN)C(=O)N[C@@H](CCCN)C(=O)NCC(=O)N[C@H](CCCN)C(=O)N[C@@H](Cc1c[nH]c2ccccc12)C(=O)N[C@@H]1C(=O)N[C@@H]([C@@H](C)CC)C(=O)NCC(=O)N[C@@H](CO)C(=O)O[C@@H]1C` [Brev-C12] (Lauroyl-[dN][dY][dW][dOrn][Orn]G[dOrn]WTIGS; ester 9-C), the “E. coli MIC” value in assay [1] was 3.12 µg/mL.

In the case of `CCCCCCCCCCCCCCCC(=O)N[C@H](CC(N)=O)C(=O)N[C@H](Cc1ccc(O)cc1)C(=O)N[C@H](Cc1c[nH]c2ccccc12)C(=O)N[C@H](CCCN)C(=O)N[C@@H](CCCN)C(=O)NCC(=O)N[C@H](CCCN)C(=O)N[C@@H](Cc1c[nH]c2ccccc12)C(=O)N[C@@H]1C(=O)N[C@@H]([C@@H](C)CC)C(=O)NCC(=O)N[C@@H](CO)C(=O)O[C@@H]1C` [Brev-C16] (Palmitoyl-[dN][dY][dW][dOrn][Orn]G[dOrn]WTIGS; ester 9-C), the “E. coli MIC” value in assay [1] is above 100 µg/mL.

As for `CC[C@H](C)[C@@H]1NC(=O)[C@@H](NC(=O)[C@H](Cc2c[nH]c3ccccc23)NC(=O)[C@@H](CCCN)NC(=O)CNC(=O)[C@H](CCCN)NC(=O)[C@@H](CCCN)NC(=O)[C@@H](Cc2c[nH]c3ccccc23)NC(=O)[C@@H](Cc2ccc(O)cc2)NC(=O)[C@H](N)CC(N)=O)[C@@H](C)OC(=O)[C@H](CO)NC(=O)CNC1=O` [Brev-NH2] (H-[dN][dY][dW][dOrn][Orn]G[dOrn]WTIGS; ester 9-C), the “E. coli MIC” value in assay [1] turned out to be 50 µg/mL. `C=CCOC(=O)CC[C@H](NC(=O)[C@H](Cc1c[nH]c2ccccc12)NC(=O)[C@@H](CCCN)NC(=O)CNC(=O)[C@H](CCCN)NC(=O)[C@@H](CCCN)NC(=O)[C@@H](Cc1c[nH]c2ccccc12)NC(=O)[C@@H](Cc1ccc(O)cc1)NC(=O)[C@@H](CC(N)=O)NC(=O)CCC(C)CC)C(=O)N[C@H](C(=O)NCC(N)=O)[C@@H](C)CC` (some centres unmarked) [Und(9-AllGlu)-NH2] ({Hexanoyl(4ξ-Me)}-[dN][dY][dW][dOrn][Orn]G[dOrn]WE(OAll)IG-NH2): in assay [1], the “E. coli MIC” value amounted to 0.4 µg/mL. For `CCC(C)CCC(=O)N[C@H](CC(N)=O)C(=O)N[C@H](Cc1ccc(O)cc1)C(=O)N[C@H](Cc1c[nH]c2ccccc12)C(=O)N[C@H](CCCN)C(=O)N[C@@H](CCCN)C(=O)NCC(=O)N[C@H](CCCN)C(=O)N[C@@H](Cc1c[nH]c2ccccc12)C(=O)N[C@@H](CC(=O)O)C(=O)N[C@H](C(=O)NCC(N)=O)[C@@H](C)CC` (some centres unmarked) [Und(9-Asp)-NH2] ({Hexanoyl(4ξ-Me)}-[dN][dY][dW][dOrn][Orn]G[dOrn]WDIG-NH2), the “E. coli MIC” value in assay [1] came out at 12.5 µg/mL. Turning to `C=CCOC(=O)NC[C@H](NC(=O)[C@H](Cc1c[nH]c2ccccc12)NC(=O)[C@@H](CCCN)NC(=O)CNC(=O)[C@H](CCCN)NC(=O)[C@@H](CCCN)NC(=O)[C@@H](Cc1c[nH]c2ccccc12)NC(=O)[C@@H](Cc1ccc(O)cc1)NC(=O)[C@@H](CO)NC(=O)CCCCCCC)C(=O)N[C@H](C(=O)N[C@@H](CC(N)=O)C(=O)NCC(N)=O)[C@@H](C)CC` [ΔG13-Dap(Alloc)9-C8] (Octanoyl-[dS][dY][dW][dOrn][Orn]G[dOrn]W[Dap](Alloc)ING-NH2), in assay [2], the “Minimum inhibitory concentration (MIC)” value lay within 2 to 4 µg/mL. In the case of `C=CCOC(=O)NC[C@H](NC(=O)[C@H](Cc1c[nH]c2ccccc12)NC(=O)[C@@H](CCCN)NC(=O)CNC(=O)[C@H](CCCN)NC(=O)[C@@H](CCCN)NC(=O)[C@@H](Cc1c[nH]c2ccccc12)NC(=O)[C@@H](Cc1ccc(O)cc1)NC(=O)[C@@H](CO)NC(=O)CCCCCC(C)C)C(=O)N[C@H](C(=O)N[C@@H](CC(N)=O)C(=O)NCC(N)=O)[C@@H](C)CC` [ΔG13-Dap(Alloc)9-isoC9] ({Octanoyl(7-Me)}-[dS][dY][dW][dOrn][Orn]G[dOrn]W[Dap](Alloc)ING-NH2), the “Minimum inhibitory concentration (MIC)” value in assay [2] was 2 µg/mL (≈ 1.22 µM). As for `CCCCCCCC(=O)N[C@H](CO)C(=O)N[C@H](Cc1ccc(O)cc1)C(=O)N[C@H](Cc1c[nH]c2ccccc12)C(=O)N[C@H](CCCN)C(=O)N[C@@H](CCCN)C(=O)NCC(=O)N[C@H](CCCN)C(=O)N[C@@H](Cc1c[nH]c2ccccc12)C(=O)N[C@@H](CO)C(=O)N[C@H](C(=O)N[C@@H](CC(N)=O)C(=O)NCC(N)=O)[C@@H](C)CC` [ΔG13-Ser9-C8] (Octanoyl-[dS][dY][dW][dOrn][Orn]G[dOrn]WSING-NH2), the “Minimum inhibitory concentration (MIC)” value in assay [2] worked out at 4 µg/mL (≈ 2.6 µM). Take `CC[C@H](C)[C@H](NC(=O)[C@H](CO)NC(=O)[C@H](Cc1c[nH]c2ccccc12)NC(=O)[C@@H](CCCN)NC(=O)CNC(=O)[C@H](CCCN)NC(=O)[C@@H](CCCN)NC(=O)[C@@H](Cc1c[nH]c2ccccc12)NC(=O)[C@@H](Cc1ccc(O)cc1)NC(=O)[C@@H](CO)NC(=O)CCCCCC(C)C)C(=O)N[C@@H](CC(N)=O)C(=O)NCC(N)=O` [ΔG13-Ser9-isoC9] ({Octanoyl(7-Me)}-[dS][dY][dW][dOrn][Orn]G[dOrn]WSING-NH2): the “Minimum inhibitory concentration (MIC)” value in assay [2] amounted to 4 µg/mL (≈ 2.58 µM). The same measure, in the same setting: to `CC(C)CCCCCC(=O)N[C@H](CO)C(=O)N[C@H](Cc1ccc(O)cc1)C(=O)N[C@H](Cc1c[nH]c2ccccc12)C(=O)N[C@H](CCCN)C(=O)N[C@@H](CCCN)C(=O)NCC(=O)N[C@H](CCCN)C(=O)N[C@@H](Cc1c[nH]c2ccccc12)C(=O)N[C@H](C(N)=O)[C@@H](C)O` [ΔI10-G13, FA-sywoOGoWT-CONH2] ({Octanoyl(7-Me)}-[dS][dY][dW][dOrn][Orn]G[dOrn]WT-NH2) belongs 16 µg/mL (≈ 12.5 µM); to `CC[C@H](C)[C@H](NC(=O)[C@@H](NC(=O)[C@H](Cc1c[nH]c2ccccc12)NC(=O)[C@@H](CCCN)NC(=O)CNC(=O)[C@H](CCCN)NC(=O)[C@@H](CCCN)NC(=O)[C@@H](Cc1c[nH]c2ccccc12)NC(=O)[C@@H](Cc1ccc(O)cc1)NC(=O)[C@@H](CO)NC(=O)CCCCCC(C)C)[C@@H](C)O)C(N)=O` [ΔN11-G13, FA-sywoOGoWTI-CONH2] ({Octanoyl(7-Me)}-[dS][dY][dW][dOrn][Orn]G[dOrn]WTI-NH2), 4 µg/mL (≈ 2.87 µM); to `CC(C)CCCCCC(=O)N[C@H](CO)C(=O)N[C@H](Cc1ccc(O)cc1)C(=O)N[C@H](Cc1c[nH]c2ccccc12)C(=O)N[C@H](CCCN)C(=O)N[C@@H](CCCN)C(=O)NCC(=O)N[C@H](CCCN)C(=O)N[C@@H](Cc1c[nH]c2ccccc12)C(N)=O` [ΔT9-G13, FA-sywoOGoW-CONH2] ({Octanoyl(7-Me)}-[dS][dY][dW][dOrn][Orn]G[dOrn]W-NH2), 16 µg/mL (≈ 13.6 µM).

In assay [2] (in vitro activity quoted in the in vivo section), polymyxin B [reference compound] showed an MIC values against E. coli ATCC 25922 of 0.5 µg/mL.
